Data reported in US10544112B2, “Identification of ebsulfur analogues with broad-spectrum antifungal activity” (priority 2017, dated 2020).
In brackets after ≈: the same amount, converted by molar mass. Like-named read-outs stand apart in the source and are kept apart here.

What was measured:
[1] = test system: C. albicans ATCC 10231 (strain A); test: ROS production assay (DCFH-DA); assay type: cell-based, Candida albicans; details: 1× and 2× MIC (H2O2 1 mM), 1-h treatment
Method: ROS production assay was performed as previously described with minor modifications. […] Once entering the cells, the DCFH-DA probe is first hydrolyzed to the non-fluorescent 2′,7′-dichlorodihydrofluorescein (DCFH) by cellular esterases. […] A colony of C. albicans ATCC 10231 (strain A) was used to inoculate 5 mL of PDB in a Falcon tube and grown overnight at 35° C. at 200 rpm.
Thus, whether the compounds of the invention would also induce ROS against C. albicans was studied. […] 2′,7′-dichlorodihydrofluorescin diacetate (DCFH-DA) was then used to detect and visualize ROS production (FIG. 5). As a positive control, cells were treated with H2O2, which is an inducer of hydroxyl radical formation.

[2] = test system: Aspergillus flavus ATCC MYA-3631 (strain K); test: Antifungal MIC determination, filamentous fungi spores; assay type: cell-based; details: all compounds
Method: (§1) Fungal MIC determination experiments were performed using untreated 96-well plates (Corning). Cells were counted either by using a hemocytometer (Hausser Scientific, Horsham, Pa., USA) or by measuring optical density at attenuance of 600 nm (OD600) by using a Genesys 20 spectrophotometer (Thermo Scientific, Waltham, Mass., USA). Spectrophotometric and colorimetric measurements in 96-well plates were performed using a SpectraMax M5 spectrometer (Molecular Devices, Sunnyvale, Calif., USA).
(§2) Yeast strains Candida albicans ATCC 10231 (strain A), C. albicans ATCC 64124 (strain B), and C. albicans ATCC MYA-2876(S) (strain C) were kindly provided by Dr. Jon Y. Takemoto (Utah State University, Logan, UT, USA). C. albicans ATCC MYA-90819(R) (strain D), C. albicans ATCC MYA-2310(S) (strain E), C. albicans ATCC 1237(R) (strain F), C. albicans ATCC MYA-1003(R) (strain G), Candida glabrata ATCC 2001 (strain H), Candida krusei ATCC 6258 (strain I), and Candida parapsilosis ATCC 22019 (strain J) were obtained from the American Type Culture Collection (ATCC, Manassas, Va., USA). The (S) and (R) indicate that ATCC reports these strains to be susceptible (S) and resistant (R) to ITC and FLC. The filamentous fungal strains Aspergillus flavus ATCC MYA-3631 (strain K), and Aspergillus terreus ATCC MYA-3633 (strain M) were also obtained from the American Type Culture Collection (ATCC, Manassas, Va., USA). Aspergillus nidulans ATCC 38163 (strain L) was kindly provided by Dr. Jon S. Thorson (University of Kentucky, Lexington, Ky., USA), respectively. Yeast strains were cultured at 35° C. Filamentous fungal strains were cultured at 25° C. and the spores were harvested. All fungal strains were cultured in RPMI 1640 medium (catalog # R6504, Sigma-Aldrich Chemical Co., St. Louis, Mo.) buffered to pH 7.0 with 0.165 M morpholinepropanesulfonic acid (MOPS) buffer (Sigma-Aldrich Chemical Co.).
(§3) The MIC values against fungal strains were determined based on a previously published protocol. MIC values for ebsulfur (2a) analogues against fungal cells were evaluated in 96-well plates as described in the CLSI document M27-A3 with minor modifications. […] Therefore, potato dextrose broth (PDB) was used to grow the yeast inocula of all strains tested, which were later diluted in RPMI 1640 medium to perform determination of MIC values. […] The tested compounds (10 mg/mL) were diluted to the working stocks (500 μg/mL) by addition of DMSO. Two-fold serial dilution of the working stocks was prepared by addition of RPMI 1640 medium (100 μL) and cell suspension (100 μL) to 96-well microtiter plate to achieve final drug and inoculum concentrations ranging from 12.5-0.02 μg/mL and 5×10^3 CFU/mL, respectively. Plates were incubated for 48 h at 35° C.
(§4) MIC assays for the spore-forming filamentous fungi, such as strain A. flavus ATCC MYA-3631 (strain K), were performed in a similar fashion. The filamentous fungal strains were first cultured at 25° C. on potato dextrose agar (PDA) plates for 3-5 days or until confluent. Spores were collected by washing the surface of the agar plates with dd H2O (5 mL) and then isolated the spores by gravity filtration (the spores are H2O soluble). […] Researchers working with spores should wear a facemask to prevent spore inhalation.

[3] = test system: Aspergillus terreus ATCC MYA-3633 (strain M); test: as above; assay type: cell-based; details: strain M; all compounds; spores
Method: as §1, §2, §3, §4

[4] = test system: Candida and Aspergillus strains; test: Antifungal MIC, summary over whole panel of fungal strains; assay type: cell-based; details: for antifungal activity after oxidizing the sulfur atom to sulfoxide: oxidized analogues
Method: as §1, §2
as §3, with “C. […]” for “C.”

[5] = test system: Candida krusei ATCC 6258 (strain I); test: Antifungal MIC determination (CLSI M27-A3, 96-well); assay type: cell-based; details: strain I; compounds 1-4n and AmB; 48 h, RPMI 1640
Method: as §1, §2
as §3, with “C. […]” for “C.”

[6] = test system: Candida parapsilosis ATCC 22019 (strain J); test: as above; assay type: cell-based; details: strain J; compounds 1-4n and AmB; 48 h, RPMI 1640
Method: as §1, §2
as §3, with “C. […]” for “C.”

[7] = test system: Candida glabrata ATCC 2001 (strain H); test: as above; assay type: cell-based; details: strain H; compounds 1-4n and AmB; 48 h, RPMI 1640
Method: as §1, §2
as §3, with “C. […]” for “C.”

[8] = test system: Candida albicans ATCC 10231 (strain A); test: as above; assay type: cell-based; details: strain A; compounds 1-4n and AmB; 48 h, RPMI 1640
Method: as §1, §2
as §3, with “C. […]” for “C.”

[9] = test system: C. albicans ATCC 64124 (strain B); assay type: cell-based, Candida albicans
Method: The efficiency of the compounds to kill C. albicans ATCC 64124 (strain B) was monitored using a previously published protocol. The cell suspensions were prepared to achieve an inoculum of approximately 1-4×10^5 CFU/mL in RPMI 1640 medium at 35° C. […] After fungal cell addition, at 0, 3, 6, 9, 12, and 24 h, the tubes were vortexed and 100 μL aliquots were removed from each solution, spread onto PDA plates, and incubated at 35° C. Colony counts were determined after 24 h of incubation. The experiments were performed in duplicate (FIG. 2).
Time-kill assays with ebsulfur (2a) and analogue 3a (FIG. 2) were performed to determine the rate of fungicidal activity of the compounds if the invention.

[10] = test system: C. albicans ATCC 64124 (strain B); test: microbe, parasite or virus in culture; assay type: cell-based, Candida albicans; details: strain B; compounds 1-4n and AmB; 48 h, RPMI 1640
Method: as §1, §2
as §3, with “C. […]” for “C.”

[11] = test system: C. albicans ATCC MYA-1003(R) (strain G); test: microbe, parasite or virus in culture; assay type: cell-based, Candida albicans; details: strain G; compounds 1-4n and AmB; 48 h, RPMI 1640
Method: as §1, §2
as §3, with “C. […]” for “C.”

[12] = test system: C. albicans ATCC MYA-1237(R) (strain F); test: microbe, parasite or virus in culture; assay type: cell-based, Candida albicans; details: strain F; compounds 1-4n and AmB; 48 h, RPMI 1640
Method: as §1, §2
as §3, with “C. […]” for “C.”

[13] = test system: C. albicans ATCC 90819(R) (strain D); test: microbe, parasite or virus in culture; assay type: cell-based, Candida albicans; details: strain D; compounds 1-4n and AmB; 48 h, RPMI 1640
Method: as §1, §2
as §3, with “C. […]” for “C.”

[14] = test system: Aspergillus nidulans ATCC 38163 (strain L); test: Antifungal MIC determination, filamentous fungi spores; assay type: cell-based; details: strain L; spores
Method: as §1, §2, §3, §4

[15] = test system: C. albicans ATCC MYA-2876(S) (strain C); test: Antifungal MIC determination (CLSI M27-A3, 96-well); assay type: cell-based, Candida albicans; details: strain C; compounds 1-4n and AmB; 48 h, RPMI 1640
Method: as §1, §2
as §3, with “C. […]” for “C.”

[16] = test system: C. albicans ATCC MYA-2310(S) (strain E); test: as above; assay type: cell-based, Candida albicans; details: strain E; compounds 1-4n and AmB; 48 h, RPMI 1640
Method: as §1, §2
as §3, with “C. […]” for “C.”

[17] = test system: Candida strains (A-J); test: Antifungal MIC, summary over panel of Candida strains; assay type: cell-based; details: Candida strains A-J
Method: as §1, §2
as §3, with “C. […]” for “C.”

| MIC values, range over the panel of fungal strains ([4]; Candida and Aspergillus strains, controls, tested herein or previously published) | Compound | ROS induction (DCFH-DA fluorescence) [1] | MIC-0 [2] | MIC-0 [3] | MIC-0 [5] | MIC-0 [6] | MIC-0 [7] | MIC-0 [8] | time from which completely fungicidal ([9]; 2× MIC) | MIC-0 [10] | MIC-0 [11] | MIC-0 [12] | MIC-0 [13] | MIC-0 [14] | antifungal activity after oxidizing the sulfur atom to sulfoxide [4] | MIC-0 [15] | MIC-0 [16] | fungicidal or fungistatic effect ([9]; 1× MIC) | fungicidal or fungistatic effect ([9]; 2× MIC) | MIC values against Candida strains, range [17] |
| --- | --- | --- | --- | --- | --- | --- | --- | --- | --- | --- | --- | --- | --- | --- | --- | --- | --- | --- | --- | --- |
| – | OO [Compound H2O2, H2O2, reference compound] | highly fluorescent | – | – | – | – | – | – | – | – | – | – | – | – | – | – | – | – | – | – |
| 0.98 to 15.6 µg/mL | C[C@@H]1[C@H](O)[C@@H](C)/C=C/C=C/C=C/C=C/C=C/C=C/C=C/[C@H](O[C@@H]2O[C@H](C)[C@@H](O)[C@H](N)[C@@H]2O)C[C@@H]2O[C@](O)(C[C@@H](O)C[C@@H](O)[C@H](O)CC[C@@H](O)C[C@@H](O)CC(=O)O[C@H]1C)C[C@H](O)[C@H]2C(=O)O [AmB, amphotericin B, reference compound] | – | 15.6 µg/mL (≈ 16.9 µM) | 3.9 µg/mL (≈ 4.22 µM) | 3.9 µg/mL (≈ 4.22 µM) | 1.95 µg/mL (≈ 2.11 µM) | 1.95 µg/mL (≈ 2.11 µM) | 3.9 µg/mL (≈ 4.22 µM) | 6 h | 3.9 µg/mL (≈ 4.22 µM) | 3.9 µg/mL (≈ 4.22 µM) | 3.9 µg/mL (≈ 4.22 µM) | 0.98 µg/mL (≈ 1.06 µM) | – | – | – | – | – | – | – |
| – | CC(C)CCn1c(=O)c2ccccc2[s+]1[O-] (centres unmarked) [Compound 4f] | – | >12.5 µg/mL | >12.5 µg/mL | >12.5 µg/mL | >12.5 µg/mL | >12.5 µg/mL | >12.5 µg/mL | – | >12.5 µg/mL | >12.5 µg/mL | >12.5 µg/mL | >12.5 µg/mL | >12.5 µg/mL | completely abolished | >12.5 µg/mL | >12.5 µg/mL | – | – | – |
| – | O=c1c2ccccc2[s+]([O-])n1C1CCCCCCC1 (centres unmarked) [Compound 4n] | – | >12.5 µg/mL | >12.5 µg/mL | >12.5 µg/mL | >12.5 µg/mL | >12.5 µg/mL | >12.5 µg/mL | – | >12.5 µg/mL | >12.5 µg/mL | >12.5 µg/mL | >12.5 µg/mL | >12.5 µg/mL | completely abolished | >12.5 µg/mL | >12.5 µg/mL | – | – | – |
| – | CC(C)Cn1c(=O)c2ccccc2[s+]1[O-] (centres unmarked) [Compound 4e] | – | >12.5 µg/mL | >12.5 µg/mL | >12.5 µg/mL | >12.5 µg/mL | >12.5 µg/mL | >12.5 µg/mL | – | >12.5 µg/mL | >12.5 µg/mL | >12.5 µg/mL | >12.5 µg/mL | >12.5 µg/mL | completely abolished | >12.5 µg/mL | >12.5 µg/mL | – | – | – |
| – | O=c1c2ccccc2sn1-c1ccccc1 [Compound 2a, ebsulfur] | highly fluorescent | 6.25 µg/mL (≈ 27.5 µM) | 6.25 µg/mL (≈ 27.5 µM) | 3.13 µg/mL (≈ 13.8 µM) | 12.5 µg/mL (≈ 55 µM) | 6.25 µg/mL (≈ 27.5 µM) | 12.5 µg/mL (≈ 55 µM) | – | – | >12.5 µg/mL | >12.5 µg/mL | 3.13 µg/mL (≈ 13.8 µM) | 6.25 µg/mL (≈ 27.5 µM) | – | 12.5 µg/mL (≈ 55 µM) | 6.25 µg/mL (≈ 27.5 µM) | fungistatic | fungicidal | – |
| – | CCCCCCCCCCCCn1sc2ccccc2c1=O [Compound 3d] | – | >12.5 µg/mL | >12.5 µg/mL | >12.5 µg/mL | >12.5 µg/mL | 12.5 µg/mL (≈ 39.1 µM) | >12.5 µg/mL | – | >12.5 µg/mL | >12.5 µg/mL | >12.5 µg/mL | >12.5 µg/mL | >12.5 µg/mL | – | >12.5 µg/mL | >12.5 µg/mL | – | – | > 12.5 µg/mL |
| – | O=c1c2ccccc2sn1CCCc1ccccc1 [Compound 3j] | – | 0.78 µg/mL (≈ 2.9 µM) | 0.20 µg/mL (≈ 0.742 µM) | 1.56 µg/mL (≈ 5.79 µM) | 6.25 µg/mL (≈ 23.2 µM) | 1.56 µg/mL (≈ 5.79 µM) | 6.25 µg/mL (≈ 23.2 µM) | – | 3.13 µg/mL (≈ 11.6 µM) | 6.25 µg/mL (≈ 23.2 µM) | 6.25 µg/mL (≈ 23.2 µM) | 3.13 µg/mL (≈ 11.6 µM) | 0.20 µg/mL (≈ 0.742 µM) | – | 6.25 µg/mL (≈ 23.2 µM) | 6.25 µg/mL (≈ 23.2 µM) | – | – | 1.56 to 62.5 µg/mL |
